Patent publication US8497279B2, “Treatment for discoid lupus” (Rigel Pharmaceuticals, Inc., priority 2011, dated 2013)
Where a name gives a salt, the structure may show the parent alone. Read-outs that look alike come from different tables or passages of the source.

Legend:
JAK1 and JAK3 kinases = experiment: Ramos B-cell line stimulated with IL-4, CD23 upregulation (FACS); assay type: cell-based, human
Description: One means of assaying for JAK inhibition is detection of the effect of compounds I and II on the upregulation of downstream gene products. In the Ramos/IL4 assay, B-cells are stimulated with the cytokine Interleukin-4 (IL-4) leading to the activation of the JAK/Stat pathway through phosphorylation of the JAK family kinases, JAK1 and JAK3, which in turn phosphorylate and activate the transcription factor Stat-6. […] Twenty to 24 hours post stimulation, cells are stained for upregulation of CD23 and analyzed using flow cytometry (FACS). […] An exemplary assay of this type is described in greater detail below. B-cells stimulated with cytokine Interleukin-4 (IL-4) activate the JAK/Stat pathway through phosphorylation of the JAK family kinases, JAK-1 and JAK-3, which in turn phosphorylate and activate the transcription factor Stat-6. […] To study the effect of inhibitors on the JAK family kinases, human Ramos B cells are stimulated with human IL-4. The Ramos B-cell line was acquired from [NT] No. CRL-1596). The cells were cultured in RPMI 1640 (Cellgro, MediaTech, Inc., Herndon, Va., Cat No. 10-040-CM) with 10% fetal bovine serum (FBS), heat inactivated (JRH Biosciences, Inc, Lenexa, Kans., Cat No. 12106-500M) according to ATCC propagation protocol. Cells were maintained at a density of 3.5×10^5. The day before the experiment, Ramos B-cells were diluted to 3.5×10^5 cells/mL to ensure that they were in a logarithmic growth phase. Cells were spun down and suspended in RPMI with 5% serum. 5×10^4 cells were used per point in a 96-well tissue culture plate. Cells were pre-incubated with compound or DMSO (Sigma-Aldrich, St. Louis, Mo., Cat No. D2650) vehicle control for 1 hour in a 37° C. incubator. Cells were then stimulated with IL-4 (Peprotech Inc., Rocky Hill, N.J., Cat No. 200-04) for a final concentration of 50 units/mL for 20-24 hours. Cells were then spun down and stained with anti-CD23-PE(BD Pharmingen, San Diego, Calif., Cat No. 555711) and analyzed by FACS. Detection was performed using a BD LSR I System Flow Cytometer, purchased from Becton Dickinson Biosciences of San Jose, Calif.

JAK/Stat pathway = experiment: U937 IFNγ ICAM1 FACS assay; assay type: cell-based, human; settings: U937 cells, IFNγ 10 ng/mL, 18-24 hours, ICAM-1 expression; read-out: Example 6 IC50
Description: U937 human monocytic cells up-regulate ICAM-1 (CD54) surface expression in response to a variety of different stimuli. Therefore, using ICAM-1 expression as readout, compound effects on different signaling pathways can be assessed in the same cell type. IFNγ up-regulates ICAM-1 through activation of the JAK/Stat pathway. In this example, the up-regulation of ICAM-1 by IFNγ was assessed.
U937 cells were grown in 10% RPMI. The cells were then plated at a concentration of 100,000 cells per 160 μL in 96 well flat bottom plates. […] Then 4 μL of test compound was transferred to 76 μL of 10% RPMI resulting in a 10× solution (100 μM test compound, 5% DMSO). For control wells, 4 μL of DMSO was diluted into 76 μL 10% RPMI.
The assay was performed in duplicate with 8 points (8 3-fold dilution concentrations from […]) and with 4 wells of DMSO only (control wells) under stimulated conditions and 4 wells of DMSO only under unstimulated conditions.
The diluted compound plate was mixed 2× using a multimek (Beckman Coulter of Brea, Calif.) and then 20 μL of the diluted compounds was transferred to the 96 well plate containing 160 μL of cells, which were then mixed again twice at low speeds. The cells and compounds were then pre-incubated for 30 minutes at 37° C. with 5% CO2.
The 10× stimulation mix was made by preparing a 100 ng/mL solution of human IFNγ in 10% RPMI. […] The cells were kept under conditions for stimulation for 18-24 hours at 37° C. with 5% CO2.
The cells were transferred to a 96 well round bottom plate for staining and then kept on ice for the duration of the staining procedure. Cells were spun down at 1000 rpm for 5 minutes at 4° C., following which the supernatant was removed. Following removal of the supernatant, 1 μL APC conjugated mouse anti-human ICAM-1 antibody was added per 100 μL FACS buffer. The cells were then incubated on ice in the dark for 30 minutes. Following incubation, 150 μL of FACS buffer was added and the cells were centrifuged at 1000 rpm for 5 minutes at 4° C., following which the supernatant was removed. […]
Both % live cells and ICAM-1 expression was analyzed. […]

primary human T-cells = experiment: Primary human T-cell proliferation assay stimulated with IL-2 (CellTiter-Glo); assay type: cell-based; settings: read-out: Example 4 IC50
Description: In this assay, primary human T-cells derived from peripheral blood and pre-activated through stimulation of the T-cell receptor and CD28, proliferate in culture in response to the cytokine Interleukin-2 (IL-2). This proliferative response is dependent on the activation of JAK1 and JAK3 tyrosine kinases, which phosphorylate and activate the transcription factor Stat-5. […] A reduction in cell proliferation compared to control conditions is indicative of inhibition of the JAK kinase pathway. An exemplary assay of this type is described in greater detail below.
Primary human T-cells derived from peripheral blood and pre-activated through stimulation of the T-cell receptor and CD28, proliferate in vitro in response to the cytokine Interleukin-2 (IL-2). This proliferative response is dependent on the activation of JAK-1 and JAK-3 tyrosine kinases, which phosphorylate and activate the transcription factor Stat-5.
Human primary T cells were prepared as follows. […] The lymphocytes at the serum: ficoll interface were recovered and washed twice with 5 volumes of PBS. […] The primary T-cells were stimulated for 3-4 days, then transferred to a fresh flask and maintained in RPMI with 10% FBS and 40 U/mL IL-2.
Primary T-cells were washed twice with PBS to remove the IL-2 and resuspended in Yssel's medium at 2×10^6 cells/mL. 50 μL of cell suspension containing 80 U/mL IL-2 was added to each well of a flat bottom 96 well black plate. For the unstimulated control, IL-2 was omitted from the last column on the plate. […] 50 μL of 2× compound was added per well in duplicate and the cells were allowed to proliferate for 72 hours at 37° C.
Proliferation was measured using CellTiter-Glo® Luminescent Cell Viability Assay (Promega), which determines the number of viable cells in culture based on quantitation of the ATP present, as an indicator of metabolically active cells. The substrate was thawed and allowed to come to room temperature. After mixing the Cell Titer-Glo reagent and diluent together, 100 μL was added to each well. […]

JAK3 = molecular target: T1, JAK3 (Homo sapiens, UniProt P52333); experiment: Human cell based assay against JAK3; settings: human cell based assays; read-out: half maximal effective concentration (EC50) against JAK3
T1 construct: endogenous in cells
T1 sequence (P52333 1-1124): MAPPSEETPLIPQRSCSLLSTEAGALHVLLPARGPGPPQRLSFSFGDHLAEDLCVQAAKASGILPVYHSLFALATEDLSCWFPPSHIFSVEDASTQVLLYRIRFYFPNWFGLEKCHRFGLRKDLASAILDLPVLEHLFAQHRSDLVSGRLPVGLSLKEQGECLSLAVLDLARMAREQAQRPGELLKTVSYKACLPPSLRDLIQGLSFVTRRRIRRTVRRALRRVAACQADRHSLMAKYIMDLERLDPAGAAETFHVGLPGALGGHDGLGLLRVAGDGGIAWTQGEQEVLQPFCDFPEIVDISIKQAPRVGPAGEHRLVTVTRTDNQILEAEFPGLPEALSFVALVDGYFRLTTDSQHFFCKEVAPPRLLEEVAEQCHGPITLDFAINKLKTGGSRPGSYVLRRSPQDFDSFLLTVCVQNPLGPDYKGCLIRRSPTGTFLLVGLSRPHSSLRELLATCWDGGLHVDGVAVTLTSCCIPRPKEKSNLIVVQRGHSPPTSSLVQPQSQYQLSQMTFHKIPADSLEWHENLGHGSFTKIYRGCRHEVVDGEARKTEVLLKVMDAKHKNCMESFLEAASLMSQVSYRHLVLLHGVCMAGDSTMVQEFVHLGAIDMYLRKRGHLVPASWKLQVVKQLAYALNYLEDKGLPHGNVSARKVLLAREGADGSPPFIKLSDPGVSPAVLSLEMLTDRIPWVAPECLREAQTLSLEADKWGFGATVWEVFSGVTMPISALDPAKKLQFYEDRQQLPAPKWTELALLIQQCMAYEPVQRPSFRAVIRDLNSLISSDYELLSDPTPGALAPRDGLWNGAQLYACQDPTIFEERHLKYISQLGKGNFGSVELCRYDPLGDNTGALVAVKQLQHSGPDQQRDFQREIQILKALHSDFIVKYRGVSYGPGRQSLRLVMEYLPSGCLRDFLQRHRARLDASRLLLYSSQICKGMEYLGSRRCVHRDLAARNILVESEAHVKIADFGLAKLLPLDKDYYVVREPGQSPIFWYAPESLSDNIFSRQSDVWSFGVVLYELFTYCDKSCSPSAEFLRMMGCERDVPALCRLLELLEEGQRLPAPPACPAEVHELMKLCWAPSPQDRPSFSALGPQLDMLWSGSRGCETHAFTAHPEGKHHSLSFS

cell proliferation = experiment: Cell proliferation (broad inhibition); assay type: cell-based
TNFα = experiment: Other cytokine signaling (TNFα); assay type: cell-based
[1] = tested on: receptor tyrosine kinase (RTK); experiment: Receptor tyrosine kinase (RTK) signaling; assay type: cell-based
IL-1β = experiment: Other cytokine signaling (IL-1β); assay type: cell-based
Syk = molecular target: T2, Syk (Homo sapiens, UniProt P43405); experiment: Human cell based assay against Syk; settings: human cell based assays; read-out: half maximal effective concentration (EC50) against Syk
T2 construct: endogenous in cells

C#CCOc1ccc(Nc2nc(Nc3ccc(C)c(S(=O)(=O)NC(=O)CC)c3)ncc2F)cc1 [VII, 5-Fluoro-N2-[4-methyl-3-(N-propionylaminosulfonyl)phenyl]-N4-[4-(2-propynyloxy)phenyl]-2,4-pyrimidinediamine Choline Salt]
IC50 (JAK1 and JAK3 kinases; Ramos B cells, IL-4 50 units/mL, 20-24 hours, CD23 staining, read-out: Example 3 IC50): 22 nM | IC50 (JAK/Stat pathway): 140 nM | IC50 (primary human T-cells; primary human T-cells, IL-2, 72 hours, ATP readout): 53 nM

C#CCOc1ccc(Nc2nc(Nc3ccc(C)c(S(=O)(=O)NC(=O)CC)c3)ncc2F)cc1 [II, 5-fluoro-N2-(4-methyl-3-propionylaminosulfonylphenyl)-N-4-[4-(prop-2-ynyloxy)phenyl]-2,4-pyrimidinediamine]
IC50 (JAK1 and JAK3 kinases; Homo sapiens, Ramos B cells, IL-4 50 units/mL, 20-24 hours, CD23 staining, read-out: Example 3 IC50): 9660 nM

C#CCOc1ccc(Nc2nc(Nc3ccc(C)c(S(=O)(=O)NC(=O)CC)c3)ncc2F)cc1 [V, 5-Fluoro-N2-[4-methyl-3-(N-propionylaminosulfonyl)phenyl]-N-4-[4-(2-propynyloxy)phenyl]-2,4-pyrimidinediamine Calcium Salt]
IC50 (JAK1 and JAK3 kinases; Ramos B cells, IL-4 50 units/mL, 20-24 hours, CD23 staining, Calcium Salt, read-out: Example 3 IC50): 373 nM | IC50 (JAK/Stat pathway): 25100 nM

C#CCOc1ccc(Nc2nc(Nc3ccc(C)c(S(N)(=O)=O)c3)ncc2F)cc1 [Compound I, N2-(3-Aminosulfonyl-4-methylphenyl)-5-fluoro-N-4-[4-(prop-2-ynyloxy)phenyl]-2,4-pyrimidinediamine]
EC50 (JAK3): ~180 nM | inhibition of cell proliferation (cell proliferation): not a broad inhibitor of cell proliferation | activity on other cytokine signaling (TNFα) (TNFα): little or no activity | activity on receptor tyrosine kinase (RTK) signaling [1]: little or no activity | activity on other cytokine signaling (IL-1β) (IL-1β): little or no activity | EC50 (Syk): ~140 nM

C#CCOc1ccc(Nc2nc(Nc3ccc(C)c(S(=O)(=O)NC(=O)CC)c3)ncc2F)cc1 [III, 5-fluoro-N2-(4-methyl-3-propionylaminosulfonylphenyl)-N-4-[4-(prop-2-ynyloxy)phenyl]-2,4-pyrimidinediamine mono-sodium salt]
IC50 (JAK1 and JAK3 kinases; Ramos B cells, IL-4 50 units/mL, 20-24 hours, CD23 staining, mono-sodium salt, read-out: Example 3 IC50): 3970 nM

C#CCOc1ccc(Nc2nc(Nc3ccc(C)c(S(=O)(=O)NC(=O)CC)c3)ncc2F)cc1 [IV, 5-Fluoro-N2-[4-methyl-3-(N-propionylaminosulfonyl)phenyl]-N4-[4-(2-propynyloxy)phenyl]-2,4-pyrimidinediamine Potassium Salt]
IC50 (JAK1 and JAK3 kinases; Homo sapiens, Ramos, read-out: Example 3 IC50, Ramos B cells, IL-4 50 units/mL, 20-24 hours, CD23 staining): 2320 nM | IC50 (primary human T-cells; Homo sapiens, T-cell, 72 h): 5560 nM
